Series [1] has as its system JEKO-1. In words: Cytotoxicity mantle cell lymphoma.
Experimental: (§1) After 72 hours, the cultures were pulsed with Alamar Blue overnight, and the fluorescent intensity of resulted cultures was measured by a Synergy H1 plate-reader (BioTek Inc).
A short description of the next series: in vitro. Conditions: rat, microsomes.
The conditions of series [2]: rat.
Another series deals with NECB-1. As to the kind of experiment: Cytotoxicity mantle cell lymphoma.
Series [3] relates to Mino. As to the kind of experiment: Cytotoxicity mantle cell lymphoma. Conditions: human, Mino mantle cell lymphoma cells, 72 h.
Experimental: as §1
For series [4], the system named is Granta-519. In words: Cytotoxicity mantle cell lymphoma. Conditions: human, Granta-519 mantle cell lymphoma cells, 72 h.
Experimental: as §1
A further series relates to NECB1. In words: Combination with BO-1055, MCL (Tables 28, 29). It is filed as cell-based, human.
Series [5] relates to Z-138. As to the kind of experiment: Cytotoxicity mantle cell lymphoma. Conditions: read-out: cytotoxicity IC50, Z-138, mantle cell lymphoma.
Experimental: as §1
The subject of another series is HBL1. Conditions: human.
Series [6] has as its system Z-138. As to the kind of experiment: Combination with BO-1055, MCL (Tables 28, 29). It is filed as cell-based, human.
Another series has as its system Farage. As to the kind of experiment: cells. Conditions: Homo sapiens, read-out: cytotoxicity IC50.
A further series has as its system Ly18. As to the kind of experiment: Cytotoxicity DLBCL. Conditions: read-out: cytotoxicity IC50; LY18, DLBCL GCB.
The test system of another series is U2932. Conditions: human.
The subject of a further series is A204 rhabdomyosarcoma. As to the kind of experiment: Cytotoxicity sarcoma. Conditions: read-out: cytotoxic activity (IC50), A204 (rhabdoid?).
In series [7] the test system is Mino. As to the kind of experiment: Combination with BO-1055, MCL (Tables 28, 29). It is filed as cell-based, human.
A further series concerns SUDHL-5. In words: Cytotoxicity DLBCL. Conditions: read-out: cytotoxicity IC50; SUDHL-5, DLBCL GCB.
The test system of the next series is Toledo. Conditions: human.
The subject of a further series is Granta. In words: Combination with BO-1055, MCL (Tables 28, 29). It is filed as cell-based, human.
The subject of another series is REC-1. In words: Combination with BO-1055, MCL (Tables 28, 29). It is filed as cell-based, human.
Another series addresses hERG (Homo sapiens, UniProt Q12809). As to the kind of experiment: in vitro.
In the next series the test system is Ly19. In words: cells. Conditions: Homo sapiens, read-out: cytotoxicity IC50.
The subject of series [8] is Granta-519.
Experimental: as §1
The test system of series [9] is Mino.
Experimental: as §1
Series [10] relates to JEKO-1. Conditions: human.
Experimental: as §1
The subject of series [11] is FTE-hTERT Fallopian epithelium. In words: Cytotoxicity normal tissue 72 hr. It is filed as cell-based, human.
Series [12] concerns HUVEC umbilical endothelium. As to the kind of experiment: Cytotoxicity normal tissue 72 hr. It is filed as cell-based, human.
In another series the test system is BMMSC BM mesenchyme. In words: Cytotoxicity normal tissue 72 hr. It is filed as cell-based, human.
For series [13], the system named is BCI-NSI hTERT bronchial epithelium. In words: Cytotoxicity normal tissue 72 hr. It is filed as cell-based, human.
For series [14], the system named is nude mice bearing prostate 22Rv/HL2. Conditions: mouse, in vivo.
For series [15], the system named is nude mice bearing prostate 22Rv/HL2 tumor xenografts. Conditions: mouse, in vivo.
Series [16] concerns nude mice bearing prostate 22Rv/HL2. Conditions: mouse, in vivo. The source holds these as a separate data set.
The next series deals with CV1 renal fibroblasts. In words: Cytotoxicity normal tissue 72 hr. It is filed as cell-based, African green monkey (Cercopithecus aethiops). Conditions: Chlorocebus sabaeus, Fibroblast, 72 h.
The next series concerns LY1. Conditions: human.
A further series deals with Ly3 (OCI-LY3). Conditions: human.
Series [17] concerns spontaneous murine B-cell lymphoma. Conditions: mouse.
The next series deals with H889. As to the kind of experiment: Cytotoxicity SCLC 72 hr alamar blue. Conditions: Homo sapiens, NCI-H889, 72 h. It is filed as cell-based, human. For orientation: The colour change of resazurin is a common sign of viable cells or microbes.
The test system of a further series is MA-10-W51. In words: Cytotoxicity leukemia. It is filed as cell-based, human. Conditions: growth factor dependent MA-10-W51. From the text: Human cord blood CD34+ cells transduced with MLL-AF9 gene: MA-10, MA-18. Human bone marrow CD34+ cells transduced with MLL-AF9 gene: MA-23. Human cord blood CD34+ cells transduced with MLL-AF9 and N-ras genes: MA-9.3, […] ).

[18] abbreviates: read-out: cytotoxicity IC50, NECB-1, mantle cell lymphoma.

Where two headings read alike, the source gives them in different places.

Experimental findings from patent US20200246284A1 (Academia Sinica, priority 2015, published 2020) are described below.

Sequence of hERG (Q12809 whole entry): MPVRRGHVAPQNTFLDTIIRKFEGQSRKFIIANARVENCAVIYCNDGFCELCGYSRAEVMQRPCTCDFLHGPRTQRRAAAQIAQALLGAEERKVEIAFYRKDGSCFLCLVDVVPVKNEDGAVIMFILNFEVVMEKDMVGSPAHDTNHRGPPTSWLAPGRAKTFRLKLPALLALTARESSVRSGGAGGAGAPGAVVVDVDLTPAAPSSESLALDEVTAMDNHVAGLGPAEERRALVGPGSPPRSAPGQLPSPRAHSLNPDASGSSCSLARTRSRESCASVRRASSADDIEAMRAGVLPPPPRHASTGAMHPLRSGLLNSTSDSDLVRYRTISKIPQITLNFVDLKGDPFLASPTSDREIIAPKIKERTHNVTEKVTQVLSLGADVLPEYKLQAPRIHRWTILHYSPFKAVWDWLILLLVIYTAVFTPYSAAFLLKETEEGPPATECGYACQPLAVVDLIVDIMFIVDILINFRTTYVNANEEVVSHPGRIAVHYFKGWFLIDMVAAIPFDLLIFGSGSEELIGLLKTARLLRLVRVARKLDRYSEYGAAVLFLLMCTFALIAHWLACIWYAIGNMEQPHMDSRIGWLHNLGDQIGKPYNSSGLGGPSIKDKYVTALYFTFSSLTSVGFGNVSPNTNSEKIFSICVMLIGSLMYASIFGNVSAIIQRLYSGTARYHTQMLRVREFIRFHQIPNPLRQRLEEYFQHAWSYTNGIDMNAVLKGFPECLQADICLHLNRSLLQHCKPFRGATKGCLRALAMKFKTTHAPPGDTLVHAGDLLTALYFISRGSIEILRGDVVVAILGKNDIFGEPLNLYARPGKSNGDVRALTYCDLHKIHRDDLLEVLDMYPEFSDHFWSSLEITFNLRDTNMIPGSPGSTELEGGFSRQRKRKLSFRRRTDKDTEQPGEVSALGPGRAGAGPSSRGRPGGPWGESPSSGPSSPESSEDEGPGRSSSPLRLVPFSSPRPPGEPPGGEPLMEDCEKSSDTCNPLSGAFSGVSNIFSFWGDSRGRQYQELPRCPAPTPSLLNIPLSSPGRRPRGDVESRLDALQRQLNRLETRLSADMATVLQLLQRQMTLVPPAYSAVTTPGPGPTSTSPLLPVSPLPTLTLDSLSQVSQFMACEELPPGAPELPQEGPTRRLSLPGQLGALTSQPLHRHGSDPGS
Experimental for A204 rhabdomyosarcoma: as §1
Experimental for HBL1: as §1
Experimental for Ly10: as §1
Experimental for Ly18: as §1
Experimental for Ly3 (OCI-LY3): as §1
Experimental for Ly8: as §1
Experimental for NECB-1: as §1
Experimental for Pfeiffer: as §1
Experimental for SUDHL-4: as §1
Experimental for SUDHL-6: as §1
Experimental for Toledo: as §1
Experimental for U2932: as §1

One may read the IC50 as the point on the concentration scale where inhibition reaches its midpoint. On to `CC[C@]1(O)C[C@H]2CN(CCc3c([nH]c4ccccc34)[C@@](C(=O)OC)(c3cc4c(cc3OC)N(C=O)[C@H]3[C@@](O)(C(=O)OC)[C@H](OC(C)=O)[C@]5(CC)C=CCN6CC[C@]43[C@@H]65)C2)C1` [Vincristine], for which, in the series with JEKO-1 [1] (JEKO-1, 72 hr (Table 27)), the IC50 is 0.39 µM.
By half-life is commonly meant the time in which the quantity being followed falls by half. A high value points to slow decline. As to `CCOc1ccc2ccc(=O)oc2c1` [7-EC, 7-Ethoxycoumarin], in the series “in vitro”, the half-life was determined as 23.5 min. Besides, the “MR (metabolic rate)” value in [2] is on record as 0.0448 nmol/min/mg. In series [2] (microsomes, 1 h), the “% Remaining at 60 min” value is on record as 18%; the “Microsome stability, standards” value is recorded as “High standard = 95%”; the “Microsome stability, turnover” value is reported as 7-EC ≥ 82%).
As for `Cc1[nH]c2ccccc2c1CCNCc1ccc(/C=C/C(=O)NO)cc1` [Panobinostat], the IC50 in the series with NECB-1 (human, NECB-1 mantle cell lymphoma cells, 72 h) was 0.02 µM; with JEKO-1 [1] (human, JEKO-1 mantle cell lymphoma cells, 72 h), 0.21 µM; in the series on Mino [3] it was 0.291 µM; with Granta-519 [4], 0.041 µM.
Take `COc1cccc2c1C(=O)c1c(O)c3c(c(O)c1C2=O)C[C@@](O)(C(=O)CO)C[C@@H]3O[C@H]1C[C@H](N)[C@H](O)[C@H](C)O1` [Doxorubicin]: the “interaction with BO-1055” value in the series with NECB1 was “synergistic with combo-1 and antagonistic against combo-2”; in the series with Z-138 [6], “both combinations were synergistic”; in the series with Mino [7], “both combinations were synergistic”; in the series with Granta it was “synergistic with combo-1 and antagonistic against combo-2”; with REC-1, “both combinations were antagonistic”. Moreover, the concentration for half-maximal inhibition (IC50) with Pfeiffer (human) was 0.061 µM; in the series with Z-138 [5], 0.033 µM; with Z-138 [5] (listed as Doxo) it was 0.34 µM; in the series with HBL1, 0.211 µM; with NECB-1 (setting [18]) it was 0.163 µM; with NECB-1 (read-out: cytotoxicity IC50, NECB-1, mantle cell lymphoma, listed as Doxo) it was 1.23 µM. The 50% inhibitory concentration (IC50) with SUDHL-6 (human) was 0.195 µM; with Farage it was 0.273 µM; in the series with Ly18 it was 0.097 µM; in the series with U2932, 0.05 µM; in the series on A204 rhabdomyosarcoma, 0.011 µM; in the series with SUDHL-5 it was 0.912 µM. The IC50 was greater than 10 µM with Toledo; 0.03 ± 0.03 µM on hERG; 0.084 µM in the series with Ly10 (human); 0.05 µM in the series with JEKO-1 [1]; 0.121 µM in the series with Ly19.
Take `CC(=O)O[C@H]1C(=O)[C@@]2(C)[C@H]([C@H](OC(=O)c3ccccc3)[C@]3(O)C[C@H](OC(=O)[C@H](O)[C@@H](NC(=O)c4ccccc4)c4ccccc4)C(C)=C1C3(C)C)[C@]1(OC(C)=O)CO[C@@H]1C[C@@H]2O` [Paclitaxel]: the concentration for half-maximal inhibition (IC50) with Z-138 [5] was 0.012 µM; in the series with NECB-1 (setting [18]) it was 0.064 µM; in the series on Granta-519 [8] (human), 0.049 µM; in the series on Mino [9] (human) it was 0.025 µM; in the series on JEKO-1 [10], 0.017 µM.
On to `CCc1c2c(nc3ccc(O)cc13)-c1cc3c(c(=O)n1C2)COC(=O)[C@]3(O)CC` [SN-38], for which the IC50 in series [11] amounted to 2000 µM; in [12] (read-out: IC50) it was 400 µM; in the series with BMMSC BM mesenchyme it was 200 µM; in series [13] (read-out: IC50) it was 500 µM; in the series on JEKO-1 [1], 0.8 µM.
In the case of `CC(=O)O[C@@]12CO[C@@H]1C[C@H](O)[C@@]1(C)C(=O)[C@H](O)C3=C(C)[C@@H](OC(=O)[C@H](O)[C@@H](NC(=O)OC(C)(C)C)c4ccccc4)C[C@@](O)([C@@H](OC(=O)c4ccccc4)[C@H]21)C3(C)C` [Docetaxel], in series [14], the BASO was 0.08 10^3/μL, the EOS is 0.12 10^3/μL, the LYM is given as 0.66 10^3/μL and the MONO is given as 0.04 10^3/μL. In addition, in [14], the NEU is reported as 1.34 10^3/μL, the PLT is 308 10^3/μL, the RBC is on record as 7.55 10^6/μL and the WBC is 2.49 10^3/μL. The “pathological change in heart, liver, spleen, lung and kidney” value in [15] is “no apparent pathological change”. In series [16], the ALT came to 54.08 U/L, the AST is given as 108.60 U/L, the BUN was determined as 21.93 mg/dL and the CREA came to 0.32 mg/dL. Moreover, the UA in [16] is 3.60 mg/dL.
As to `Cn1c(CCCC(=O)O)nc2cc(N(CCCl)CCCl)ccc21` [Bendamustine], the IC50 in series [12] is 150 µM; in series [13], 150 µM; in the series on CV1 renal fibroblasts, greater than 100 µM; in the series with JEKO-1 [1], 6.25 µM.
For the molecule `COc1cc([C@@H]2c3cc4c(cc3[C@@H](O[C@@H]3O[C@@H]5CO[C@@H](C)O[C@H]5[C@H](O)[C@H]3O)[C@H]3COC(=O)[C@H]23)OCO4)cc(OC)c1O` [Etoposide], in the series with JEKO-1 [1], half-maximal inhibition (IC50) required 0.78 µM.
With `CC(C)C[C@H](NC(=O)[C@H](Cc1ccccc1)NC(=O)c1cnccn1)B(O)O` [velcade, Bortezomib], the “interaction with BO-1055” value was “synergistic with combo-1 and antagonistic with combo-2” in the series with NECB1; “synergistic cytotoxic with both combinations” in the series on Z-138 [6]; “synergistic cytotoxic with both combinations” in the series with Mino [7]; “synergistic with combo-1 and antagonistic with combo-2” with Granta; “antagonistic in both combinations” in the series with REC-1. The 50% inhibitory concentration (IC50) came to 0.004 µM with Pfeiffer (human); 0.005 µM in the series on LY1; 0.004 µM in the series with HBL1; 0.143 µM in the series with NECB-1 (setting [18]); 0.021 µM in the series on Ly3 (OCI-LY3); 0.008 µM in the series with Granta-519 [8] (human). Moreover, the IC50 in the series with SUDHL-6 (human) came to 0.001 µM; in the series on Ly18, 0.01 µM; in the series with Ly8 (human) it was 0.078 µM; with U2932 it was 0.005 µM; with SUDHL-5 it was 0.018 µM; in [17], 0.006 µM. In addition, the half-maximal inhibitory concentration (IC50) came out at 0.108 µM with Toledo, 0.042 µM with Mino [9] (human) and 0.003 µM in the series on SUDHL-4 (human).
`O=NN(CCCl)C(=O)NCCCl` [BCNU, BCNU/Carmustine]: in the series on H889, the half-inhibitory concentration (IC50) is greater than 45 µM.
As for `CCc1c(CO)c(CO)c2n1Cc1c(c3ccccc3n1C)C2` [BO-1978], the “cytotoxicity, dose titration (FIG. 9)” value in the series with MA-10-W51 was “highly cytotoxic, with BO-1978 more so than BO-1055”.
As for `CNC(=O)c1cc(Oc2ccc(NC(=O)Nc3ccc(Cl)c(C(F)(F)F)c3)cc2)ccn1` [SOR], the IC50 with Pfeiffer is 4.57 µM; in the series on Granta-519 [8], no less than 8 µM; in the series with SUDHL-6, no less than 8 µM; with Ly8, no less than 8 µM; in the series on Mino [9] it was no less than 8 µM; in the series on Ly10, no less than 8 µM. The molecule also came in with an IC50 in the series on SUDHL-4 of 5.62 µM.
